We go through three compounds from ChEMBL document CHEMBL2311533, “Pentacyclic hemiacetal sterol with antifouling and cytotoxic activities from the soft coral Nephthea sp” (Bioorg Med Chem Lett, 2013).

In brackets after ≈: the same amount, converted by molar mass.

Series [1] in a line: Selectivity index, ratio of cytotoxic LC50 to antifouling EC50 in Bugula neritina larvae.
A short description of series [2]: Antifouling activity against Bugula neritina larvae. It counts as functional.
Series [3] can be described thus: Toxicity against Bugula neritina larvae.
A further series deals with HeLa. Description: Cytotoxicity against human HeLa cells incubated for 48 hrs by MTT assay. Format: functional, cell-based.

As to `CC(C)CC[C@H]1OC(O)[C@]23CC[C@H]4[C@@H](CCC5=CC(=O)C=C[C@@]54C)[C@@H]2CC[C@@H]3[C@@H]1C` (mixture of isomers) [NEPHTHOACETAL], the “Selectivity Index” value in series [1] is on record as above 10. Also, the EC50 in series [2] is 2.5 µg/mL. The same compound registered an LC50 in series [3] above 25 µg/mL. Moreover, in the series on HeLa, the IC50 was found to be 12.3 µg/mL.
Take `CC(=O)O[C@H]1O[C@H](CCC(C)C)[C@@H](C)[C@H]2CC[C@H]3[C@@H]4CCC5=CC(=O)C=C[C@]5(C)[C@H]4CC[C@]123`: the EC50 in series [2] was above 25 µg/mL. In addition, the LC50 in series [3] is above 25 µg/mL. Moreover, in the series with HeLa, the IC50 amounted to 19.6 µg/mL (≈ 43.1 µM).
`CC(=O)O[C@@H]1O[C@H](CCC(C)C)[C@@H](C)[C@H]2CC[C@H]3[C@@H]4CCC5=CC(=O)C=C[C@]5(C)[C@H]4CC[C@]123` displayed an EC50 in series [2] above 25 µg/mL. The compound also showed an LC50 in series [3] above 25 µg/mL. Also, the IC50 with HeLa was 10.1 µg/mL (≈ 22.2 µM).
